The record followed here is US9034906B2, “EP4 agonist” (Asahi Glass Company, Limited, priority 2008, dated 2015).

Series [1] relates to dextran sodium sulfate-induced colitis. Briefly: Dextran sodium sulfate-induced colitis model in mice (C57BL/6). In kind it is in vivo, mouse. The note with it: C57BL/6 mice, DSS, oral 0.3 mg/kg once a day. The procedure:
Whether or not an IP agonist has an effect on such colitis model was determined using a selective IP agonist, BPS.
Female C57BL/6 mice (6 weeks old, Japan SLC) were purchased, acclimated for 1 week and used for the study. Except the normal group, the mice were allowed to freely drink a 3 or 2 w/v % DSS (MP Biochemicals, Lot No. 5653H and 5464H, respectively) solution for 1 week to induce colitis. BPS at a dose of 0.3 mg/kg and compound F at doses of 0.3 and 1 mg/kg were orally administered once a day, daily, from the start day of DSS drinking (day 0) to one day before autopsy (day 9). To the control group was orally administered a solvent (1 vol % ethanol solution) at 10 mL/kg in the same manner. The consistency of the stool was graded from score 0 to 4, with normal (0), partly loose stool (1), loose stool (2) and diarrhea (4). The blood feces was also graded from score 0 to 4, with normal (0), partly blood feces (1), blood feces (2) and blood feces plus proctorrhagia (4). The sum of both grades was defined as the stool score (maximum 8). Furthermore, the length of the large intestine was measured in the same manner as in Example 23. Six to 10 animals were used for each group, and the results are shown in average±standard deviation.

The nature of series [2]: Effect on blood pressure and heart rate in mice. Format: in vivo, mouse. Particulars: ICR mice, intravenous 0.01 mg/kg, isoflurane anesthesia. The procedure: Male ICR mice (5 weeks old, Japan SLC) were purchased, acclimated for 6 days and used for the test. The animals were treated and measured under isoflurane inhalation anesthesia (anesthesia introduced at 2.5%, maintained at 1.8-2.1%), while body temperature was kept at 37° C. with a Heat Controller (ATC-402, Unique Medical Co., Ltd.). A catheter for administration of test compounds was inserted into the left femoral vein, and another catheter was inserted into the right femoral artery and connected to a pressure transducer to record each parameter of hemodynamics.
Compound F, the carboxylate form of compound F and BPS were intravenously administered at a dose of 0.01 mg/5 mL/kg, and the effect on the mean blood pressure and heart rate was evaluated with computer software for the analysis of hemodynamics (Fluclet, Dainippon Sumitomo Pharma Co., Ltd.). To the control group was intravenously administered a solvent (1.2% ethanol solution) at 5 mL/kg in the same manner. The results are expressed as a ratio of change in each parameter before and after the drug administration. Three to 6 animals were used for each group, and the results were expressed as average±standard deviation.

In series [3] the test system is anti-Thy-1 antibody-induced glomerulonephritis. Briefly: Anti-Thy-1 antibody-induced glomerulonephritis model in rats. Format: in vivo, rat. Particulars: Wistar rats, oral 0.3 mg/kg twice a day. The method, then:
Male Slc: Wistar rats (6 weeks old, Japan SLC) were purchased, acclimated for 1 week and used for the study. Except the normal group, anti-Thy-1 antibody (mouse anti-CD90 antibody (UK-Serotech Ltd. Code:MCA47XZ, clone No: MRC OX-7, Lot No. 0303)) was administered once intravenously to the animals. A mixture of compound F and compound J (F:J=52:41, indicated as compound F/J) was orally administered from the day of the antibody administration (day 0) to day 6, daily, twice a day (morning and evening; each 0.3 mg/kg). After 3 days from the antibody administration, urine was collected for one day. On day 7 of the antibody administration, the animal was autopsied. The right kidney was isolated, weighed and fixed with formalin. Five to 8 animals were used for each group and the results were expressed as average±standard deviation.

In series [4] the test system is dextran sodium sulfate-induced colitis. Kind of series: Remission/relapse model of dextran sodium sulfate-induced colitis in mice, therapeutic. Format: in vivo, mouse. Particulars: compound F 1 mg/kg, SASP 100 mg/kg, oral once a day for 50 days. From the text:
Next, therapeutic effect of compound F on colitis was studied in a chronic model. Female BALB/c mice, 6 weeks old, body weight about 20 g (Japan SLC) were purchased, acclimated for 1 week and used for the study. The mice were divided into a colitis induction group and a normal group. The colitis induction group was allowed to freely drink a 2.6 w/v % DSS (MP Biochemicals, M.W. 36,000-50,000, Lot No. 4556J) solution to induce colitis. On day 8 when the stool score (defined in Example 23) of the colitis induction group reached about 4.5, the mice were subdivided into a control group, a compound F 1 mg/kg administration group and a salazosulfapyridine (SIGMA, Lot No. 085K1930, hereinafter to be abbreviated as SASP) 100 mg/kg administration group. Then the mice were allowed to freely drink distilled water instead of DSS solution for 9 days (remission period). After the grouping, the stool score was evaluated every 3-4 days. […]
Compound F at a dose of 1 mg/kg and SASP at a dose of 100 mg/kg were orally administered once a day, daily, for 50 days from the initial remission period (day 8 from the start of 2.6 w/v % DSS drinking) to the fifth remission period (day 57 from the start of 2.6 w/v % DSS drinking). […] The remission ratio (%) was calculated as a ratio of mice in remission in each group. […]

Consider `CC#CCC(C)[C@H](O)/C=C/[C@@H]1[C@H]2c3cccc(CCCC(=O)O)c3O[C@H]2C[C@H]1O` (mixture of isomers) [BPS, beraprost sodium, reference compound], for which, in series [1], the “Effect on shortening of the large intestine” value was “no effect” and the “Effect on stool score” value is given as “tendency toward aggravation”. Further, in series [2], the “Effect on heart rate” value is “on the increase and remained high even after 10 min”; the “Maximum decrease ratio of mean blood pressure” value was 38%.

On to `Cc1cccc(C(C)[C@H](O)/C=C/[C@@H]2[C@@H]3[C@H](C[C@H]2O)O/C(=C\CCCc2nnn[nH]2)C3(F)F)c1` (mixture of isomers) [compound F/J, 4-[(Z)-(1S,5R,6R,7R)-6-[(1E,3R,4RS)-3-hydroxy-4-(m-tolyl)-1-pentenyl]-7-hydroxy-2-oxa-4,4-difluoro-bicyclo[3.3.0]octan-3-ylidene]-1-(tetrazol-5-yl)butane], for which, in series [3], the 24-hr urine protein entry is “lower value than control”; the 24-hr urine volume entry is “of the same level as the normal group”; the Body weight entry was “shift similar to that of the control group”; the Relative kidney weight result was “lower than control and near the normal”. In addition, the “Renal histopathology: total glomerular cells, mesangial region and PCNA-positive cells in the glomerulus” value in series [3] is “significantly suppressed the increase”.

With `O=C(O)c1cc(/N=N/c2ccc(S(=O)(=O)Nc3ccccn3)cc2)ccc1O` [SASP, salazosulfapyridine, reference compound], in series [4], the “Effect on stool score in remission and relapse periods” value is recorded as “did not show a clear effect”.
